US12076341B2, “Use of apoptotic compensatory proliferation signaling vesicles in tissue repair and wound healing” (Rush University Medical Center, priority 2018, dated 2024)
Entries after “also recorded” stand apart in the source; their conditions may differ. Where a SMILES comes first, the peptide text is derived from it. The star is where a group is joined. Cbz = O=C(OCc1ccccc1)*; CH2F = FC*

Tests used:
Type in all cases: cell-based
[1] = tested on: Hela cells; assay: Vesicle production in 16K fraction of serum-starved Hela cells (Crkl Western blot, lipid content); conditions: Z-VAD pretreatment; Crkl level and lipid content of 16K fraction
Procedure: (§1) (FIG. 2A) Hela cells either received 10% serum (Mock) or were induced to undergo apoptosis by serum-starvation in the presence or absence of Z-VAD. 24 h after serum starvation, apoptotic cell death was assessed by flow cytometry and the tabulated results from 3 independent experiments are shown in (FIG. 2B). (*** p<0.001, One-way ANOVA). (FIGS. 2C-21) Supernatants from the indicated cultures were fractionated by differential centrifugation and evaluated for their Crkl-containing microvesicles (ACPSVs) and CPS. (FIG. 2C) ACPSVs in the 16K fraction of apoptotic cells were visualized by DIC. (FIG. 2D) Vesicle size distribution was determined and plotted (Mean size±S.D.=1.76±1.04 μm, n=822). […] (FIG. 2H) The lipid contents of the vesicles in the 16K fractions of the indicated cultures were measured and the tabulated data from 3 experiments are shown. […] (FIG. 2I) Hela cells were treated with 16K fractions of serum-fed healthy (Mock), serum-starved apoptotic (Apop.), or Z-VAD treated serum-starved (Apop.+Z-VAD) and the proliferation levels were determined by cell count 24 h after treatment. […] 24 h after serum starvation, cells were fixed and analyzed by SEM. […] Five hours after vesicle addition, the fractions of mitotic cells, with no vesicle (NV); with ACPSV only (+AC); with apoptotic body only (+AB); or with a combination of vesicles (+Mix) were assessed by SEM. […]

[2] = tested on: Hela cells; assay: Apoptotic cell death of serum-starved Hela cells by flow cytometry; conditions: Z-VAD pretreatment; 24 h serum starvation
Procedure: as §1

[3] = tested on: human epithelial keratinocytes (HEK); assay: Anoikis apoptosis, vesicle formation and CPS of HEK cells grown in suspension media; conditions: 60 μm Z-VAD
Procedure: HEK primary cells also product Crkl-containing vesicles which mediate CPS in other cells. (FIG. 8A) HEK cells were cultured either seeded (Mock) or induced to undergo anoikis apoptosis by culturing them in suspension media in the presence or absence of Z-VAD. (FIGS. 8A-8B) Supernatants from the indicated cultures were fractionated, as in FIG. 2, and their 16K fractions were evaluated for ACPSV production by Western blotting, using Crkl as a marker for vesicles, whose expression from 3 experiments was evaluated by densitometer and plotted below (FIG. 8A) or by lipid content measurements from 3 experiments in FIG. 8B. (n=3, * p≤ 0.05, ** p≤ 0.01, *** p≤ 0.001, one-way ANOVA). (FIG. 8C) ACPSVs in 16K fraction of apoptotic HEK cells were visualized by DIC. Similar to HeLa and B16 cells, vesicles from apoptotic HEK cells were globular and ranged between 1-1.8 micron in diameter. (FIG. 8D) HEK cells were treated with vesicles (16K fractions) harvested from HEK seeded healthy (Mock) cultures, or HEK grown in suspension media (Apop.), or HEK grown in suspension media in the presence of Z-VAD (Apop.+Z-VAD). 24 h after treatment, the proliferation levels were determined by cell counts and the tabulated data from 3 independent experiments were shown as the Mean±S.D. (** p<0.01, *** p≤ 0.001, one-way ANOVA). […]

[4] = tested on: Hela cells; assay: IF time-lapse videomicroscopy of transfected Hela cells (apoptosis, vesicle formation, compensatory proliferation signaling); conditions: cells pre-treated with Z-VAD prior to transfection
[5] = tested on: Hela cells; assay: Proliferation assay by cell counts, adherent Hela cells treated with 16K fraction vesicles; conditions: 16K fraction of Z-VAD treated serum-starved Hela cells; cell count 24 h
Procedure: Generation and Purification of ACPSVs: 7.5×10^6 cells were cultured in 150 mm^2 flasks (TPP) overnight in 25 mL of indicated media. Next day, cells were induced to undergo intrinsic apoptosis by serum-starvation, extrinsic apoptosis apoptosis by treatment with anti-Fas mAb (abcam-ab11881), or anoikis apoptosis by growing the cells detached from the surface in suspension media in Thermo Scientific Nunclon Sphera plates, in the presence or absence of Z-VAD. 24 to 48 h after induction of apoptosis, culture supernatants from serum-fed healthy (Mock) and apoptotic cells were collected and subjected to differential centrifugation. […] The proliferation-inducing effect associated with each fraction was determined by cell counts after growing recipient cells for 24 h at 37° C. in the presence of 5% CO2, using a hemocytometer after trypsin digestion.
Proliferation Assay. […] The next day at the time of treatment with vesicles, the initial cell number per well (0 h) was determined by trypsin digestion and cell counts using a hemocytometer. […] Proliferation rates were determined blindly by cell counts determination using a hemocytometer.

CC(NC(=O)C(NC(=O)OCc1ccccc1)C(C)C)C(=O)NC(CC(=O)O)C(=O)CF (stereo not drawn) [Z-VAD] (Cbz-Val-Ala-Asp-CH2F; configuration not given here)
vesicle production in serum-starved cells [1]: significantly reduced
apoptosis in serum-starved Hela cells [2]: significantly reduced
apoptosis in HEK cells grown in suspension media [3]: significantly reduced
vesicle formation and CPS in HEK cells grown in suspension media [3]: prevented
ACPSV formation and release from Crkl-GFP transfected Hela cells [4]: inhibits apoptosis and vesicle formation; also recorded: not formed or released
CPS in recipient cells [5]: abrogated
